Data set [1] deals with RL cells. As to the kind of experiment: CD40L-induced NF-kB activation, p65 phosphorylation Western blot, RL cells. The data set is classed as cell-based, human. The method, then:
(§1) RL and SU-DHL-4 cells were stimulated with CD40L for 0, 10, 30, and 90 minutes and Western blots were performed (FIG. 3). […] The phosphorylation persisted in these cell lines for at least 90 minutes. […] Down-regulating NF-kB activation in a cell may sensitize the cell to CHOP cytotoxicity (Chuang et al. (2002) Biochemical Pharmacology 63:1709-1716; Cheng et al. (2000) Oncogene 19:4936-4940).
On the technique in general: A western blot detects proteins with antibodies after separation by electrophoresis.

Data set [2] has as its target soluble CD40 (Homo sapiens, UniProt P25942). As to the kind of experiment: ELISA-type binding assays. A general note: ELISA stands for enzyme-linked immunosorbent assay.
The subject of data set [3] is SU-DHL-4 cells. As to the kind of experiment: CD40L-induced NF-kB activation, p65 phosphorylation Western blot, SU-DHL-4 cells. The data set is classed as cell-based, human. Here is the method:
as §1

For data set [4], the system named is B cells from normal human subjects. As to the kind of experiment: In vitro proliferation of B cells from normal human subjects. The class given is cell-based. Here is the method:
B cells (4×10^4 per well) are cultured in 200 μl IMDM supplemented with 10% fetal calf serum in flat bottom 96-well microtiter plates. B cells are stimulated by addition of immobilized anti-(IgM) antibodies (Immunobeads; 5 μg/ml; BioRad, Richmond, Calif.). Where desired, 100 U/ml recombinant IL-2 is added. Varying concentrations of test monoclonal antibodies (mAbs) are added at the onset of the microcultures and proliferation is assessed at day 3 by measurement of the incorporation of (3H)-thymidine after 18 hour pulsing.
(§2) The antibody is able to kill CD40-expressing target cells by antibody dependent cellular cytotoxicity (ADCC). The binding affinity of HCD122 for human CD40 is 5×10^−10 M, as determined by the Biacore™ assay.

In data set [5] the target is T1, human CD40 (Homo sapiens, UniProt P25942). As to the kind of experiment: Biacore binding affinity assay.
Text: As used herein “anti-CD40 antibody” encompasses any antibody that specifically recognizes the CD40 antigen. […] Biacore analysis is known in the art and details are provided in the “BIAapplications handbook”.
as §2
On the technique in general: Surface plasmon resonance follows binding to a sensor surface in real time, without labels.
Target sequence in this assay (P25942 21-277): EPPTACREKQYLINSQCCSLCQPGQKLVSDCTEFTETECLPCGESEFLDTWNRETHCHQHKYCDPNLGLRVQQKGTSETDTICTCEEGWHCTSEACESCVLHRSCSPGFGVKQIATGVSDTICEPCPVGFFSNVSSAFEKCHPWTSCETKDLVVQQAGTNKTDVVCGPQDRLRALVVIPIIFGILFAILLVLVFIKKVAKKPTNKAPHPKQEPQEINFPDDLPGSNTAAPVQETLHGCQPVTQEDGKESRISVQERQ

Data set [6] has as its target cell-surface CD40 (Homo sapiens, UniProt P25942). As to the kind of experiment: Flow cytometric assays of CD40-ligand binding.
Data set [7] has as its system RL cell line. As to the kind of experiment: CD40L-induced expression of cell-surface adhesion molecules, RL cells. The data set is classed as cell-based, human. The method, then: (§3) To further elucidate the mechanism by which the H-CHOP combination results in unexpectedly potent anti-tumour efficacy in vivo, further experiments were performed. The ability of B-cells cells to aggregate and interact with their microenvironment may affect the efficacy of therapeutics. The effects of HCD122 on the expression of adhesion molecules in the RL and SU-DHL-4 cell lines was therefore examined.

In data set [8] the test system is CD40-expressing target cells. As to the kind of experiment: Antibody dependent cellular cytotoxicity (ADCC). The data set is classed as cell-based.
Text: as §2

The subject of data set [9] is RL diffuse large B-cell lymphoma (DLBCL) xenograft. As to the kind of experiment: Anti-tumor activity in RL DLBCL xenograft model. The class given is in vivo. Particulars: alone or with CHOP regimen; for Tumor Growth Inhibition (TGI) on Day 25: vs control huIgG. Here is the method: The anti-tumor activity of HCD122 was tested in RL DLBCL xenograft models in combination with CHOP in CB17/SCID mice. 10×10^6 RL cells were subcutaneously implanted with equal volume of Matrigel™ in the animals' midline thoracic vertebral region in a 200 μl volume. The antibody administration was initiated when the mean tumor volume was 150-200 mm^3 in size (noted as day 1 in FIG. 1). […] All monoclonal antibodies were administered on a once-a-week schedule, and the length of treatment was 4 weeks. The CHOP regimen was administered at these doses and schedule: prednisone, 0.2 mg/kg p.o. days 1-5; cytoxan, 40 mg/kg, i.v., day 1; doxorubicin 3.3 mg/kg, i.v., day 1; vincristine, 0.5 mg/kg, i.v., day 1. Group size was n=12. For tumor volume measurements, length then width were measured with a digital caliper. The measurements were recorded twice a week once the tumors became visible. Tumor volumes and doubling times were calculated based on the formula, Volume=L×W^2/2. The animals' weights were recorded and evaluated as a per group average.

For data set [10], the system named is SU-DHL-4 cell line. As to the kind of experiment: CD40L-induced expression of cell-surface adhesion molecules, SU-DHL-4 cells. The class given is cell-based, human. Here is the method: as §3
The test system of data set [11] is SU-DHL-4 cells. As to the kind of experiment: CD40L-induced resistance to CHOP cytotoxicity (CellTiter-Glo). Particulars: antibody 10 μg/ml; CD40L 1 μg/ml; 3 days; percentage of viable cells. The class given is cell-based, human. Here is the method: Experiments were performed to elucidate the mechanism by which the H-CHOP combination provides unexpectedly potent anti-tumour efficacy in vivo. SU-DHL-4 cells were cultured in the presence of (i) negative control huIgG1 antibody, (ii) HCD122, (iii) huIgG1 and CD40L or (iv) HCD122 and CD40L. SU-DHL-4 cells were seeded at 30,000 cells/well. The antibodies were all used at 10 μg/ml. Recombinant human soluble CD40L was used at 1 μg/ml with ligand enhancer at 2 μg/ml. All cells were treated with cytoxan at 1 mg/ml, prednisone at 15 μg/ml, doxrubicin at 2.5 ng/ml and vincristin at 1 pg/ml. Cells were cultured for 3 days and the percentage of viable cells determined using CellTiter-Glo.

The subject of data set [12] is SU-DHL-4 cells. As to the kind of experiment: CD40L-induced aggregation of SU-DHL-4 cells by microscopy. The class given is cell-based, human.
The target of data set [13] is T1, human CD40. As to the kind of experiment: Biacore.
Data set [14] concerns the target soluble CD40 (UniProt P25942 21-193, limits assumed). As to the kind of experiment: ELISA-type assays.
Setting [15] is: CD40L in the presence of HCD122.

From patent US20110002934A1, “USES OF ANTI-CD40 ANTIBODIES” (Novartis AG, priority 2007, published 2011) come the findings set out here.

Where “and” joins values, the source holds several entries; their conditions need not be identical. Equal entries are not always repeated.

cell-surface CD40, sequence (P25942 21-277): as above
soluble CD40 (UniProt P25942 21-193, limits assumed), sequence (P25942 21-193 limits assumed): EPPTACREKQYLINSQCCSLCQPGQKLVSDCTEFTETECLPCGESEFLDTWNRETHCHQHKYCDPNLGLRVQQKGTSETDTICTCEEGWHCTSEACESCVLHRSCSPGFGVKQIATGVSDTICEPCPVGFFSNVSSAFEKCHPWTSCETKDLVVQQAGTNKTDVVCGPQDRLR
soluble CD40 (Homo sapiens, UniProt P25942), sequence (P25942 21-193 limits assumed): as above

Broadly, the Kd is a measure of binding affinity in units of concentration. A higher Kd goes with weaker binding. Take “HCD122: human IgG1 anti-CD40 monoclonal antibody, produced by hybridoma deposited with ATCC as PTA-5543”: the “NF-kB activation induced by CD40L” value in [1] and in [3] was “completely blocked” in each case. The “Phosphorylation of p65 on CD40L stimulation” value in data set [1] (setting [15]) and in data set [3] (setting [15]) was “greatly inhibited” in each case. In data set [2], the “Binding to soluble CD40” value is given as “binds soluble CD40”. In data set [4], the “Effects on proliferation of B cells from normal human subjects” value is given as “acts as antagonist anti-CD40 antibody”. The “Induction of proliferation of human lymphocytes from normal subjects” value in [4] is listed as “does not induce strong proliferation”. This molecule also had a dissociation constant (Kd) in data set [5] of 0.5 nM. Moreover, the “Binding of CD40-ligand to cell-surface CD40” value in data set [6] is listed as “prevents the binding”. The “Displacement of pre-bound CD40-ligand” value in data set [6] is given as “displaces the pre-bound CD40-ligand”. For the same molecule, the “CD40L-induced expression of CD54, CD86 and CD95” value in [7] and in [10] was “inhibit” in each case. The “Killing of CD40-expressing target cells by ADCC” value in [8] is recorded as “able to kill”. The “Tumor Growth Inhibition (TGI) on Day 25” value in [9] (antibody 0.1 mg/kg i.p. once a week for 4 weeks) is 28.65%; in [9] (antibody 1 mg/kg i.p. once a week for 4 weeks), 71% and 71.15%. Further, the “Tumor-growth delay (time to reach tumor size of 500 mm^3)” value is 1.5 days in data set [9] (antibody 0.1 mg/kg i.p. once a week) and 6 days in [9] (antibody 1 mg/kg i.p. once a week). Moreover, in data set [11], the “CD40L-induced resistance to CHOP cytotoxicity” value is given as “resistance can be overcome”. In data set [12], the “CD40L-induced aggregation of SU-DHL-4 cells” value is “inhibited”.

B1: monoclonal antibody HCD122 (antibody, human IgG1, kappa, V domains shown)
VH: QVQLVESGGGVVQPGRSLRLSCAASGFTFSSYGMHWVRQAPGKGLEWVAVISYEESNRYHADSVKGRFTISRDNSKITLYLQMNSLRTEDTAVYYCARDGGIAAPGPDYWGQGTLVTVSS
VL: DIVMTQSPLSLTVTPGEPASISCRSSQSLLYSNGYNYLDWYLQKPGQSPQVLISLGSNRASGVPDRFSGSGSGTDFTLKISRVEAEDVGVYYCMQARQTPFTFGPGTKVDIRR
notes: Fully human IgG1 kappa antibody from XenoMouse; hybridoma ATCC PTA-5543; also called CHIR-12.12; anti-CD40 antibody
B1: the equilibrium dissociation constant (Kd) in data set [13] worked out at 0.5 nM. The binding result in [14] is listed as “binds”.
